In PubChem BioAssay (NCI):
Several values for one entry are separate records, joined by “and”; a condition that tells them apart may be missing. Identical values can stand only once.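 Each compound was tested at five concentrations against cells in 96-well plates for 48 hours. GI50 marks 50% less growth. The concentration for full growth arrest is given as TGI.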

What was measured:
Test in all cases: NCI-60 cell line screen, 48 h
UACC-62 melanoma = system: UACC-62 melanoma
786-0 renal = system: 786-0 renal
SK-OV-3 ovarian = system: SK-OV-3 ovarian
K-562 leukemia = system: K-562 leukemia
SF-295 CNS = system: SF-295 CNS
A498 renal = system: A498 renal
MOLT-4 leukemia = system: MOLT-4 leukemia
IGROV1 ovarian = system: IGROV1 ovarian
HS 578T breast = system: HS 578T breast
MDA-MB-435 = system: MDA-MB-435

| SMILES | TGI (UACC-62 melanoma) | TGI (786-0 renal) | TGI (SK-OV-3 ovarian) [µM] | TGI (K-562 leukemia) [µM] | TGI (SF-295 CNS) | TGI (A498 renal) [µM] | TGI (MOLT-4 leukemia) [µM] | TGI (IGROV1 ovarian) | GI50 (UACC-62 melanoma) [µM] | GI50 (HS 578T breast) [µM] | TGI (HS 578T breast) | GI50 (786-0 renal) [µM] | GI50 (K-562 leukemia) [µM] | GI50 (IGROV1 ovarian) | GI50 (SF-295 CNS) [µM] | GI50 (MDA-MB-435) [µM] | TGI (MDA-MB-435) [µM] | GI50 (A498 renal) [µM] | GI50 (MOLT-4 leukemia) [µM] | GI50 (SK-OV-3 ovarian) [µM] |
| --- | --- | --- | --- | --- | --- | --- | --- | --- | --- | --- | --- | --- | --- | --- | --- | --- | --- | --- | --- | --- |
| O=C1c2ccccc2C(=O)N1CCN(CCN1C(=O)c2ccccc2C1=O)Cn1cccn1 | 63.2 µM | > 100 µM | > 100 | > 100 | > 100 µM | > 100 | > 100 |  |  |  |  |  |  |  |  |  |  |  |  |  |
| O=C1CCC2CC(C(=O)c3ccccc3)CCC2CN1 (centres undefined) (tested in a mixture with another compound) | > 100 µM | > 100 µM | > 100 | > 100 | > 100 µM |  | > 100 | > 100 µM |  |  |  |  |  |  |  |  |  |  |  |  |
| COC(=O)C(CC(C)C)NC(=O)NC12CC3CC(CC(F)(C3)C1)C2 (centres undefined) | > 100 µM | > 100 µM | > 100 | > 100 |  | > 100 | > 100 | > 100 µM |  |  |  |  |  |  |  |  |  |  |  |  |
| COC(=O)C(C(=O)C(=O)Nc1nc(=S)[nH][nH]1)c1csc(-n2nc(-c3ccccc3)cc2-c2ccccc2)n1 (centres undefined) | > 100 µM | > 100 µM | > 100 | > 100 |  | > 100 | > 100 | > 100 µM |  |  |  |  |  |  |  |  |  |  |  |  |
| O=C(O)C[C@H]1CCCCC12CCOC2=O (some centres undefined) | > 100 µM | > 100 µM | > 100 | > 100 | > 100 µM |  | > 100 | > 100 µM |  |  |  |  |  |  |  |  |  |  |  |  |
| COC(=O)/C=C(\C(=O)OC)c1c2c3c(cc(OC)c(OC)c3c3ccccc13)CCN2C | > 100 µM | > 100 µM | > 100 | 90.8 | > 100 µM |  | 89.5 | 99.4 µM |  |  |  |  |  |  |  |  |  |  |  |  |
| CC1=NOC(=O)/C1=C/c1cccc2ccccc12 | > 100 µM | > 100 µM | > 100 | > 100 | > 100 µM | > 100 | > 100 | > 100 µM |  |  |  |  |  |  |  |  |  |  |  |  |
| NS(=O)(=O)c1ccc(NC2=CC(=O)C(=O)c3ccccc32)cc1 | > 100 µM | > 100 µM | > 100 | > 100 | > 100 µM | > 100 | > 100 | > 100 µM |  |  |  |  |  |  |  |  |  |  |  |  |
| CCOC(=O)c1c(C)n2c(=O)cc(C)c3c(O)c(O)cc1c32 | 29.3 µM | > 100 µM |  | 33.3 | > 100 µM | > 100 | 15.2 | 87 µM | 8.9 | 25.6 | > 100 µM | 8.83 | 3.46 | 4.83 µM | 10.3 | 14.5 | > 100 | 27.4 | 1.34 |  |
| Cc1ccc(NC(=O)C(=O)C(C#N)c2nc(-c3ccc(-c4ccccc4)cc3)cs2)c(C)c1 (centres undefined) | > 100 µM | > 100 µM | > 100 |  | > 100 µM | > 100 | > 100 | > 100 µM |  |  |  |  |  |  |  |  |  |  |  |  |
| CCCCCCCCCCCCCC(=O)OCC1OC(n2cc(F)c(=O)[nH]c2=O)C(NC(=O)OCc2ccccc2)C(OC(=O)CCCCCCCCCCCCC)C1O (centres undefined) | > 100 µM | > 100 µM | > 100 | > 100 | > 100 µM | > 100 | > 100 | > 100 µM |  |  |  |  |  |  |  |  |  |  |  |  |
| O=C(c1ccccc1)[C@H]1Nc2ccc(Cl)cc2C2c3ccccc3CC21 (some centres undefined) |  | > 100 µM |  | > 100 | 67.5 µM |  | > 100 | > 100 µM |  |  |  |  |  |  |  |  |  |  |  |  |
| Cl.Fc1c[c-]c(-c2ccccn2)c(F)c1.[Pt].c1ccc(P(c2ccccc2)C([PH+](c2ccccc2)c2ccccc2)[PH+](c2ccccc2)c2ccccc2)cc1 | 18 µM | 20.6 µM |  | > 100 | 14.7 µM | 7.47 | > 100 | > 100 µM | 3.03 | 2.92 | 39 µM | 3.34 | 2.44 | 3.16 µM | 3.46 | 3.4 | 16 | 2.59 | 2.54 |  |
| COc1ccc2c(c1)[nH]c(=O)c1c3cc(OC)ccc3cn21 | 1.4 µM | 1.56 µM | 4.2 | 0.0486 | 0.18 µM | 1.35 | 0.788 | 1.18 µM | < 0.01 |  |  | 0.0453 | < 0.01 | 0.0157 µM | < 0.01 | < 0.01 | < 0.01 | < 0.0104 | < 0.0145 | 0.0522 |
| Cc1cc2c(cc1C)[n+](=O)c(C(=O)C/C(=N/OCCCc1ccccc1)C(=O)Nc1cc(Cl)ccc1Cl)c(C)n2[O-] | > 100 µM | > 100 µM | > 100 | > 100 | > 100 µM | > 100 | > 100 | > 100 µM |  |  |  |  |  |  |  |  |  |  |  |  |
| COc1c(C(=O)c2ccc([N+](=O)[O-])cc2)cc(C(C)(C)C)cc1C(C)(C)C | 36.2 µM | > 100 µM | > 100 | > 100 | > 100 µM | > 100 | 39.9 | > 100 µM |  |  |  |  |  |  |  |  |  |  |  |  |
| COC(=O)/C(=N\Nc1nc(=S)[nH]n1N)C(C#N)c1ccccc1 (centres undefined) | > 100 µM | > 100 µM | > 100 | > 100 |  | > 100 | > 100 | > 100 µM |  |  |  |  |  |  |  |  |  |  |  |  |
| CN(Cc1cc(Br)cc(Br)c1O)Cc1cc(Br)cc(Br)c1O | 11.8 µM | 14.6 µM |  | 20 | 11.9 µM | 18.7 | 36.3 | 18.1 µM | 1.8 | 5.24 | 47.7 µM | 1.42 | 0.603 | 1.56 µM | 0.847 | 3.79 | 22.6 | 4.08 | 3.31 |  |
| CC(=O)Nc1cc(N(CCOS(C)(=O)=O)CCOS(C)(=O)=O)ccc1N=O | > 100 µM | > 100 µM |  | > 100 | > 100 µM |  | > 100 | > 100 µM |  |  |  |  |  |  |  |  |  |  |  |  |
| CC1(C)CCC2=C(O1)c1ccccc1C(=O)C2=O | 3.3 µM and 0.957 µM | 3.94 µM and 2.68 µM | 3.94 |  | 3.1 µM and 1.68 µM | 11.3 | 7.92 | 3.55 µM and 3.39 µM | 1.79 |  | 6.32 µM and 0.643 µM | 1.99 |  | 1.8 µM and 1.78 µM | 1.67 | 0.191 |  |  | 2.67 |  |
| COc1ccc(C(=O)c2cc(OC)c(OC)c(OC)c2)cc1/C=C/C(=O)c1ccc(OC)c(OC)c1 |  | > 100 µM | > 100 | > 100 | > 100 µM |  | 17.4 | > 100 µM |  | 11.1 | > 100 µM | 4.71 | 0.4 | 3.08 µM | 5.26 | 2.29 | > 100 |  | 0.669 | 5.76 |
